In patent US20080274892A1, “Novel Haloalkylsulfonanilide Derivative, Herbicide, and Method of Use Thereof” (priority 2005, published 2008):

Assays:
[1] = tested on: paddy rice plant (cultivar: Nihonbare); test: Test Example 3: phytotoxicity test for transplanted paddy rice plant; format: in vivo; settings: dosage 1000 g/ha; transplanted rice, treated 5 days after transplantation; 21 days after treatment
Procedure, shortened: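 Clay loam soil was placed in a 75 cm^2 plastic pot and flooded to a water depth of 5 cm. Two Nihonbare paddy rice plants at the two-leaf stage were transplanted 1 cm deep and grown in a hot house. After treatment, pots stayed in the hot house for 21 days, and phytotoxicity was then graded against an untreated control.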

[2] = tested on: barnyard glass; test: Test Example 2: herbicidal efficacy on rice paddy weeds post-emergence; format: in vivo, Echinochloa crus-galli; settings: dosage 1000 g/ha; post-emergence, one leaf stage; 21 days after treatment
Procedure, shortened: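 Efficacy on paddy weeds was scored on a 0 to 4 growth-inhibition scale: 4 for 90%-100%, 3 for 70%-89%, 2 for 40%-69%, 1 for 1%-39% and 0 for 0%. Barnyard glass was grown in clay loam in 75 cm^2 pots under 5 cm of water in a hot house. It was compared with untreated pots 21 days after treatment.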

[3] = tested on: bulrush; test: as above; format: in vivo, Scirpus juncoides; settings: dosage 1000 g/ha; post-emergence, one leaf stage; 21 days after treatment
[4] = tested on: bulrush; test: Test Example 1: herbicidal efficacy on rice paddy weeds pre-emergence; format: in vivo, Scirpus juncoides; settings: dosage 1000 g/ha, 21 days
[5] = tested on: transplanted paddy rice plant and Bulrush; test: Test Example 5: selectivity between transplanted paddy rice plant and weeds; format: in vivo; settings: (highest dosage with no phytotoxicity to paddy rice)/(lowest dosage with effective level 4 on Bulrush); rice 3000-100 g/ha, Bulrush 300-10 g/ha; 21 days
Procedure, shortened: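 Scoring ran 21 days after treatment in a hothouse on a 0–4 scale (4 = 90–100%, 3 = 70–89%, 2 = 40–69%, 1 = 1–39%, 0 = none) relative to untreated plants. Post-emergence bulrush received 10, 30, 100 and 300 g/ha active ingredient. Transplanted rice received 100, 300, 1000 and 3000 g/ha to assess crop injury.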

[6] = tested on: false pimpernel; test: Test Example 1: herbicidal efficacy on rice paddy weeds pre-emergence; format: in vivo, Lindernia pyxidaria; settings: dosage 1000 g/ha, 21 days
[7] = tested on: false pimpernel; test: Test Example 2: herbicidal efficacy on rice paddy weeds post-emergence; format: in vivo, Lindernia pyxidaria; settings: dosage 1000 g/ha; post-emergence, one leaf stage; 21 days after treatment
[8] = tested on: bulrush; test: Test Example 4: low dosage test for rice paddy weeds; format: in vivo, Scirpus juncoides; settings: 300 g/ha as an active ingredient; plants treated at the one leaf stage; 21 days after treatment; vs untreated control
Procedure, shortened: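 Compound applied as a formulation at 300 g/ha to one-leaf bulrush grown in flooded clay loam (5 cm water) in a hot house. After 21 days, growth inhibition versus untreated plants rated on a 0–4 scale, with 4 meaning 90–100%.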

CC(C)COC(=O)N(c1ccccc1CN1CC(CCl)OC1=O)S(=O)(=O)C(F)(F)F (centres unmarked) [1-40]
Phytotoxicity to paddy rice [1]: 0 (0% of herbicidal efficacy or phytotoxicity) | Burnyard grass post (herbicidal efficacy grade) [2]: 4 (90%-100% of herbicidal efficacy or phytotoxicity) | Bulrush post (herbicidal efficacy grade) [3]: 4 (90%-100% of herbicidal efficacy or phytotoxicity) | Bulrush pre (herbicidal efficacy grade) [4]: 4 (90%-100% of herbicidal efficacy or phytotoxicity) | Selective Index [5]: 100 | False pimpernel pre (herbicidal efficacy grade) [6]: 4 (90%-100% of herbicidal efficacy or phytotoxicity) | False pimpernel post (herbicidal efficacy grade) [7]: 4 (90%-100% of herbicidal efficacy or phytotoxicity) | Herbicide effect to Bulrush [8]: 4 (90%-100% of herbicidal efficacy or phytotoxicity)

CCCCOC(=O)N(c1ccccc1CN1CC(C)(C(C)C)OC1=O)S(=O)(=O)C(F)(F)F (racemic) [1-117]
Phytotoxicity to paddy rice [1]: 2 (40%-69% of herbicidal efficacy or phytotoxicity) | Burnyard grass post (herbicidal efficacy grade) [2]: 4 (90%-100% of herbicidal efficacy or phytotoxicity) | Bulrush post (herbicidal efficacy grade) [3]: 4 (90%-100% of herbicidal efficacy or phytotoxicity) | Bulrush pre (herbicidal efficacy grade) [4]: 4 (90%-100% of herbicidal efficacy or phytotoxicity) | Selective Index [5]: 10 | False pimpernel pre (herbicidal efficacy grade) [6]: 4 (90%-100% of herbicidal efficacy or phytotoxicity) | False pimpernel post (herbicidal efficacy grade) [7]: 4 (90%-100% of herbicidal efficacy or phytotoxicity) | Herbicide effect to Bulrush [8]: 4 (90%-100% of herbicidal efficacy or phytotoxicity)

CC(C)COC(=O)N(c1ccccc1CN1CC(C)(C(F)(F)F)OC1=O)S(=O)(=O)C(F)(F)F (centres unmarked) [1-136]
Phytotoxicity to paddy rice [1]: 1 (1%-39% of herbicidal efficacy or phytotoxicity) | Burnyard grass post (herbicidal efficacy grade) [2]: 4 (90%-100% of herbicidal efficacy or phytotoxicity) | Bulrush post (herbicidal efficacy grade) [3]: 4 (90%-100% of herbicidal efficacy or phytotoxicity) | Bulrush pre (herbicidal efficacy grade) [4]: 4 (90%-100% of herbicidal efficacy or phytotoxicity) | Selective Index [5]: 10 | False pimpernel pre (herbicidal efficacy grade) [6]: 4 (90%-100% of herbicidal efficacy or phytotoxicity) | False pimpernel post (herbicidal efficacy grade) [7]: 4 (90%-100% of herbicidal efficacy or phytotoxicity) | Herbicide effect to Bulrush [8]: 4 (90%-100% of herbicidal efficacy or phytotoxicity)

COC(=O)N(c1ccccc1CN1CC(C)(C(C)(C)C)OC1=O)S(=O)(=O)C(F)(F)F (centres unmarked) [1-153]
Phytotoxicity to paddy rice [1]: 1 (1%-39% of herbicidal efficacy or phytotoxicity) | Burnyard grass post (herbicidal efficacy grade) [2]: 4 (90%-100% of herbicidal efficacy or phytotoxicity) | Bulrush post (herbicidal efficacy grade) [3]: 4 (90%-100% of herbicidal efficacy or phytotoxicity) | Bulrush pre (herbicidal efficacy grade) [4]: 4 (90%-100% of herbicidal efficacy or phytotoxicity) | Selective Index [5]: 10 | False pimpernel pre (herbicidal efficacy grade) [6]: 4 (90%-100% of herbicidal efficacy or phytotoxicity) | False pimpernel post (herbicidal efficacy grade) [7]: 4 (90%-100% of herbicidal efficacy or phytotoxicity) | Herbicide effect to Bulrush [8]: 4 (90%-100% of herbicidal efficacy or phytotoxicity)

CCOC(=O)N(c1ccccc1CN1CC(C)(C(C)C)OC1=O)S(=O)(=O)C(F)(F)F (racemic) [1-115]
Phytotoxicity to paddy rice [1]: 3 (70%-89% of herbicidal efficacy or phytotoxicity) | Burnyard grass post (herbicidal efficacy grade) [2]: 4 (90%-100% of herbicidal efficacy or phytotoxicity) | Bulrush post (herbicidal efficacy grade) [3]: 4 (90%-100% of herbicidal efficacy or phytotoxicity) | Bulrush pre (herbicidal efficacy grade) [4]: 4 (90%-100% of herbicidal efficacy or phytotoxicity) | Selective Index [5]: 10 | False pimpernel pre (herbicidal efficacy grade) [6]: 4 (90%-100% of herbicidal efficacy or phytotoxicity) | False pimpernel post (herbicidal efficacy grade) [7]: 4 (90%-100% of herbicidal efficacy or phytotoxicity) | Herbicide effect to Bulrush [8]: 4 (90%-100% of herbicidal efficacy or phytotoxicity)

CCCCOC(=O)N(c1ccccc1CN1CC(C)(C)OC1=O)S(=O)(=O)C(F)(F)F [1-63]
Phytotoxicity to paddy rice [1]: 2 (40%-69% of herbicidal efficacy or phytotoxicity) | Burnyard grass post (herbicidal efficacy grade) [2]: 4 (90%-100% of herbicidal efficacy or phytotoxicity) | Bulrush post (herbicidal efficacy grade) [3]: 4 (90%-100% of herbicidal efficacy or phytotoxicity) | Bulrush pre (herbicidal efficacy grade) [4]: 4 (90%-100% of herbicidal efficacy or phytotoxicity) | Selective Index [5]: ≧30 | False pimpernel pre (herbicidal efficacy grade) [6]: 4 (90%-100% of herbicidal efficacy or phytotoxicity) | False pimpernel post (herbicidal efficacy grade) [7]: 4 (90%-100% of herbicidal efficacy or phytotoxicity) | Herbicide effect to Bulrush [8]: 4 (90%-100% of herbicidal efficacy or phytotoxicity)

CCOC(=O)N(c1ccccc1CN1CC(C)(C2CC2)OC1=O)S(=O)(=O)C(F)(F)F (racemic) [1-111]
Phytotoxicity to paddy rice [1]: 2 (40%-69% of herbicidal efficacy or phytotoxicity) | Burnyard grass post (herbicidal efficacy grade) [2]: 4 (90%-100% of herbicidal efficacy or phytotoxicity) | Bulrush post (herbicidal efficacy grade) [3]: 4 (90%-100% of herbicidal efficacy or phytotoxicity) | Bulrush pre (herbicidal efficacy grade) [4]: 4 (90%-100% of herbicidal efficacy or phytotoxicity) | Selective Index [5]: ≧30 | False pimpernel pre (herbicidal efficacy grade) [6]: 4 (90%-100% of herbicidal efficacy or phytotoxicity) | False pimpernel post (herbicidal efficacy grade) [7]: 4 (90%-100% of herbicidal efficacy or phytotoxicity) | Herbicide effect to Bulrush [8]: 4 (90%-100% of herbicidal efficacy or phytotoxicity)

CCCCOC(=O)N(c1ccccc1CN1CC(C)(C2CC2)OC1=O)S(=O)(=O)C(F)(F)F (racemic) [1-113]
Phytotoxicity to paddy rice [1]: 1 (1%-39% of herbicidal efficacy or phytotoxicity) | Burnyard grass post (herbicidal efficacy grade) [2]: 4 (90%-100% of herbicidal efficacy or phytotoxicity) | Bulrush post (herbicidal efficacy grade) [3]: 4 (90%-100% of herbicidal efficacy or phytotoxicity) | Bulrush pre (herbicidal efficacy grade) [4]: 4 (90%-100% of herbicidal efficacy or phytotoxicity) | Selective Index [5]: 30 | False pimpernel pre (herbicidal efficacy grade) [6]: 4 (90%-100% of herbicidal efficacy or phytotoxicity) | False pimpernel post (herbicidal efficacy grade) [7]: 4 (90%-100% of herbicidal efficacy or phytotoxicity) | Herbicide effect to Bulrush [8]: 4 (90%-100% of herbicidal efficacy or phytotoxicity)

CC(C)COC(=O)N(c1ccccc1CN1CC2(CC2)OC1=O)S(=O)(=O)C(F)(F)F [1-89]
Phytotoxicity to paddy rice [1]: 1 (1%-39% of herbicidal efficacy or phytotoxicity) | Burnyard grass post (herbicidal efficacy grade) [2]: 4 (90%-100% of herbicidal efficacy or phytotoxicity) | Bulrush post (herbicidal efficacy grade) [3]: 4 (90%-100% of herbicidal efficacy or phytotoxicity) | Bulrush pre (herbicidal efficacy grade) [4]: 4 (90%-100% of herbicidal efficacy or phytotoxicity) | Selective Index [5]: 10 | False pimpernel pre (herbicidal efficacy grade) [6]: 4 (90%-100% of herbicidal efficacy or phytotoxicity) | False pimpernel post (herbicidal efficacy grade) [7]: 4 (90%-100% of herbicidal efficacy or phytotoxicity) | Herbicide effect to Bulrush [8]: 4 (90%-100% of herbicidal efficacy or phytotoxicity)

COC(=O)N(c1ccccc1CN1CC(C)(C2CCCCC2)OC1=O)S(=O)(=O)C(F)(F)F (centres unmarked) [1-157]
Phytotoxicity to paddy rice [1]: 1 (1%-39% of herbicidal efficacy or phytotoxicity) | Burnyard grass post (herbicidal efficacy grade) [2]: 4 (90%-100% of herbicidal efficacy or phytotoxicity) | Bulrush post (herbicidal efficacy grade) [3]: 4 (90%-100% of herbicidal efficacy or phytotoxicity) | Bulrush pre (herbicidal efficacy grade) [4]: 4 (90%-100% of herbicidal efficacy or phytotoxicity) | Selective Index [5]: 3 | False pimpernel pre (herbicidal efficacy grade) [6]: 4 (90%-100% of herbicidal efficacy or phytotoxicity) | False pimpernel post (herbicidal efficacy grade) [7]: 4 (90%-100% of herbicidal efficacy or phytotoxicity) | Herbicide effect to Bulrush [8]: 3 (70%-89% of herbicidal efficacy or phytotoxicity)
